Measured values taken from ChEMBL document CHEMBL1201862, “PubChem BioAssay data set” (2004).
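48-hour exposure; five concentrations; linearly interpolated endpoints. GI50 = concentration required for 50% inhibition of growth.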 Active and inactive are the calls of the source. No stated cut-off is given here; in the data, active = GI50 up to about 1.1 µM and inactive = higher.

Experiments:
Experiment in all cases: NCI tumour cell line growth inhibition, 48 h
[1] = tested on: DMS-273
[2] = tested on: LXFL 529
[3] = tested on: M19-MEL
[4] = tested on: RXF 631
[5] = tested on: SNB-78
[6] = tested on: XF498
[7] = tested on: DLD-1
[8] = tested on: HOP-18
[9] = tested on: KM-20L2

| SMILES | GI50 [1] | GI50 [2] | GI50 [3] | GI50 [4] | GI50 [5] | GI50 [6] | GI50 [7] | GI50 [8] | GI50 [9] |
| --- | --- | --- | --- | --- | --- | --- | --- | --- | --- |
| COC(=O)C[C@H]1CCC2(OCCO2)[C@]1(C)C(=O)OC | > 100 µM (inactive) | > 100 µM (inactive) | > 100 µM (inactive) | > 100 µM (inactive) | > 100 µM (inactive) | > 100 µM (inactive) | – | – | – |
| CN(C)CCC(=O)/C=C\c1ccccc1 | 16.3 µM (inactive) | 13.5 µM (inactive) | 19.7 µM (inactive) | 18.1 µM (inactive) | 15.5 µM (inactive) | 14.9 µM (inactive) | 15.8 µM (inactive) | 22.6 µM (inactive) | 30.6 µM (inactive) |
| CC(C)(CN1CCCCC1)C(=O)/C=C/c1ccc(Br)cc1 | 2 µM (inactive) | 1.81 µM (inactive) | 14.8 µM (inactive) | – | 8.07 µM (inactive) | 2.05 µM (inactive) | 3.01 µM (inactive) | 2.47 µM (inactive) | 2.49 µM (inactive) |
| COc1ccc(NC(=O)/C(Cc2nc3ccccc3nc2O)=N\O)c(OC)c1 | – | > 100 µM (inactive) | > 100 µM (inactive) | > 100 µM (inactive) | > 100 µM (inactive) | > 100 µM (inactive) | > 100 µM (inactive) | > 100 µM (inactive) | > 100 µM (inactive) |
| COc1ccc([C@@H]2CC(=O)NCCCCNCCCN2)cc1 | > 100 µM (inactive) | > 100 µM (inactive) | > 100 µM (inactive) | – | > 100 µM (inactive) | > 100 µM (inactive) | > 100 µM (inactive) | > 100 µM (inactive) | > 100 µM (inactive) |
| CC1(C)OC2C(CCP(=O)(O)O)OC(c3nc(C(N)=O)cs3)C2O1 (stereo unspecified) | > 100 µM (inactive) | > 100 µM (inactive) | > 100 µM (inactive) | > 100 µM (inactive) | – | – | > 100 µM (inactive) | > 100 µM (inactive) | > 100 µM (inactive) |
| CCN(CC)CCCCC1CCN(CC(=O)N2c3ccccc3NC(=O)CC2C)CC1 (stereo unspecified) | > 100 µM (inactive) | > 100 µM (inactive) | > 100 µM (inactive) | 30.1 µM (inactive) | > 100 µM (inactive) | – | – | > 100 µM (inactive) | > 100 µM (inactive) |
| C[C@]12CC[C@H](OC(=O)Cc3ccc(N(CCCl)CCCl)cc3)CC1CC[C@@H]1C2CC[C@]2(C)NC(=O)CCC12 (stereo partly specified) | 5.64 µM (inactive) | 8.3 µM (inactive) | 14.3 µM (inactive) | 16 µM (inactive) | 14.1 µM (inactive) | 13.6 µM (inactive) | 16.3 µM (inactive) | 16.7 µM (inactive) | 5.58 µM (inactive) |
| CCCCCCCCCCCCCC(=O)OCC1OC(n2cc(F)c(=O)[nH]c2=O)C(N)C(OC(=O)CCCCCCCCCCCCC)C1O (stereo unspecified) | > 100 µM (inactive) | > 100 µM (inactive) | > 100 µM (inactive) | – | > 100 µM (inactive) | – | – | – | > 100 µM (inactive) |
| CC1=NN(C(=O)CC(=O)N(C(=O)c2ccccc2Cl)c2ccc(C)cc2)C(=O)C1/N=N/c1ccc([N+](=O)[O-])cc1 (stereo unspecified) | 48.9 µM (inactive) | 49.4 µM (inactive) | – | – | 57.5 µM (inactive) | > 100 µM (inactive) | > 45.9 µM (inactive) | > 62.8 µM (inactive) | > 55.6 µM (inactive) |
| O=C(Cc1ccccc1)NN1C(=O)C(Cl)C1c1cc(Br)ccc1O (stereo unspecified) | 5.19 µM (inactive) | 5.68 µM (inactive) | 4.62 µM (inactive) | – | 8 µM (inactive) | 7.76 µM (inactive) | 3.33 µM (inactive) | 5.01 µM (inactive) | 9.64 µM (inactive) |
| Cc1nc2sccn2c1C(=O)N/N=C1\SCC(=O)N1C | > 100 µM (inactive) | > 100 µM (inactive) | > 100 µM (inactive) | > 100 µM (inactive) | – | > 100 µM (inactive) | > 100 µM (inactive) | 26.3 µM (inactive) | > 100 µM (inactive) |
| Cc1cc(Cl)cc2c1NC(=O)C2(O)CC(=O)c1ccc(F)cc1 (stereo unspecified) | 77.3 µM (inactive) | – | 5.41 µM (inactive) | – | 31.4 µM (inactive) | 32.1 µM (inactive) | 96.8 µM (inactive) | 11.3 µM (inactive) | > 100 µM (inactive) |
| O=C1CC2CCCC23CC2(CCN13)OCCO2 (stereo unspecified) | > 100 µM (inactive) | > 100 µM (inactive) | > 100 µM (inactive) | > 100 µM (inactive) | > 100 µM (inactive) | > 100 µM (inactive) | > 100 µM (inactive) | > 100 µM (inactive) | > 100 µM (inactive) |
| COC(=O)[C@@H](C)[C@H]1CC[C@@](C)(CCC2=C(C)CC3C=C(C)CCC3C2(C)C)OO1 (stereo partly specified) | 2.18 µM (inactive) | 1.03 µM (active) | 1.77 µM (inactive) | 2 µM (inactive) | 2.23 µM (inactive) | – | 0.962 µM (active) | – | 1.7 µM (inactive) |
| O=C(O)CCCSC(=O)Nc1ccc(/N=N/c2ccccc2)cc1 | > 100 µM (inactive) | > 100 µM (inactive) | – | – | > 100 µM (inactive) | – | – | – | > 100 µM (inactive) |
| Cc1cc(C)c2[s+]snc2c1 | 47.1 µM (inactive) | 34.4 µM (inactive) | > 100 µM (inactive) | 96.6 µM (inactive) | 84.3 µM (inactive) | 30 µM (inactive) | > 100 µM (inactive) | 44.8 µM (inactive) | > 100 µM (inactive) |
| N#CC(NNC(=O)Cc1ccccc1)c1ccccc1O (stereo unspecified) | 6.59 µM (inactive) | 15.2 µM (inactive) | 7.96 µM (inactive) | – | 80.5 µM (inactive) | – | 47 µM (inactive) | 13.2 µM (inactive) | – |
| CC(=O)O[C@H]1C(=O)[C@@]2(C)C(C(OC(=O)c3ccccc3)C3[C@@H](O)C(OC(=O)[C@@H](O)[C@H](NC(=O)c4ccccc4)c4ccc(C(F)(F)F)cc4)C(C)=C1C3(C)C)[C@]1(OC(C)=O)CO[C@@H]1C[C@@H]2O (stereo partly specified) | 11.7 µM (inactive) | 15.2 µM (inactive) | > 25 µM (inactive) | – | > 25 µM (inactive) | – | > 25 µM (inactive) | – | 8.73 µM (inactive) |
| CCOC1=C2C(C)(CCC3[C@@]4(C)C=CC(=O)C(C)(C)C4CC(O)[C@@]23C)C(c2ccoc2)C1=O (stereo partly specified) | 25.2 µM (inactive) | – | 18.9 µM (inactive) | 17.9 µM (inactive) | 38.5 µM (inactive) | > 10 µM (inactive) | 11.4 µM (inactive) | 33.7 µM (inactive) | 17.1 µM (inactive) |
| COc1ccc(C(=O)C#Cc2cnc(O)nc2O)cc1 | 14.9 µM (inactive) | 3.36 µM (inactive) | 8.93 µM (inactive) | 8.89 µM (inactive) | 16.1 µM (inactive) | – | 6.32 µM (inactive) | 24.5 µM (inactive) | 9.86 µM (inactive) |
| COc1ccc(CCc2cc(OC)cc(OC)c2)cc1 | 5.15 µM (inactive) | 32.9 µM (inactive) | 25.3 µM (inactive) | 13.7 µM (inactive) | 51.4 µM (inactive) | 16.7 µM (inactive) | 23.1 µM (inactive) | > 32.4 µM (inactive) | 13.6 µM (inactive) |
| CC[C@@]1(O)C(=O)OCc2c1cc1n(c2=O)Cc2cc3c(OC)cccc3nc2-1 | < 0.01 µM (active) | 0.492 µM (active) | 0.056 µM (active) | 0.0628 µM (active) | – | 0.0942 µM (active) | 0.27 µM (active) | 0.0425 µM (active) | 0.0622 µM (active) |
